Data as given in US9447015B1, “(S)-2′-vinyl-abscisic acid derivatives” (Valent BioSciences Corporation, priority 2015, dated 2016).

Test system: Arabidopsis thaliana seed germination
Assay: Arabidopsis seed germination assay (promotion of germination in the presence of (S)-ABA)
Format: in vivo
Parameters: key to Rating: Arabidopsis seed germination promotion activity: −: Seeds germinated at approximately the same time as those treated with 0.3 ppm of (S)-ABA alone (i.e., treatment with the 2′-vinyl-(S)-ABA derivative showed no measurable effect in this assay configuration).; +: Seeds germinated 1 to 4 days earlier than those treated with 0.3 ppm of (S)-ABA alone.; ++: Seeds germinated 5 to 7 days earlier than those treated with 0.3 ppm of (S)-ABA alone.; +++: Seeds germinated 8 to 10 days earlier than those treated with 0.3 ppm of (S)-ABA alone
Details: 30 ppm compound in the presence of 0.3 ppm (S)-ABA; scored on day 14
Description: To determine whether the (S)-ABA derivatives of the present invention were effective antagonists, germination assays were performed with the model plant Arabidopsis thaliana. If the compounds are found to be antagonists, they may be useful to counter any undesirable side effects of (S)-ABA.
Arabidopsis seed was sterilized by shaking for five minutes in 200 proof ethanol, followed by shaking for five minutes in a 10% bleach solution. The seeds were then washed five times in sterile, distilled, de-ionized water and suspended in 0.1% phytoagar. The tubes containing the seeds were wrapped in aluminum foil and stratified at 4° C. for two days.
All compounds were tested at a concentration of 30 ppm in the presence or absence of 0.3 ppm (S)-ABA, in 24-well plates. For each compound, a 1000 ppm stock solution was prepared in distilled, deionized water containing 5% DMSO. The stock test solution (15 μL) was added to each well, plus or minus 1.5 μL of 100 ppm (S)-ABA in 5% DMSO. Appropriate amounts of distilled, de-ionized water was added to equalize volumes, and 450 μL of ½×Murashige and Skoog media containing 1.2% Bactoagar was then added to each well (final DMSO concentration was 0.5%). When the media solidified, ten to 15 sterile stratified Arabidopsis seeds were distributed into each well using a repeat pipettor. The plates were sealed with surgical tape and placed in a growth chamber running diurnal cycles of 12 hours of light at 24° C. and 12 hours of darkness at 19° C. The plates were scanned on days 3 through 14, and scored on day 14. The (S)-2′-vinyl-substituted ABA derivatives were scored on ability to promote germination in the presence of (S)-ABA. The results are summarized below in “Table 1: Arabidopsis seed germination promotion activity of 2′-vinyl-(S)-ABA derivatives.”

| Structure (SMILES) | Rating: Arabidopsis seed germination promotion activity |
| --- | --- |
| CC(=C/C(=O)O)/C=C/[C@@]1(O)C(/C=C/c2cc(F)cc(F)c2)=CC(=O)CC1(C)C [Compound 24] | ++ (Seeds germinated 5 to 7 days earlier than those treated with 0.3 ppm of (S)-ABA alone.) |
| COc1ccc(C(F)(F)F)cc1/C=C/C1=CC(=O)CC(C)(C)[C@@]1(O)/C=C/C(C)=C\C(=O)O [Compound 28] | ++ (Seeds germinated 5 to 7 days earlier than those treated with 0.3 ppm of (S)-ABA alone.) |
| CC(=C/C(=O)O)/C=C/[C@@]1(O)C(/C=C/c2nccs2)=CC(=O)CC1(C)C [Compound 34] | − |
| COC(=O)/C=C(C)\C=C\[C@@]1(O)C(/C=C/c2ccccc2Cl)=CC(=O)CC1(C)C [Compound 12] | + (Seeds germinated 1 to 4 days earlier than those treated with 0.3 ppm of (S)-ABA alone.) |
| CC1=CC(=O)CC(C)(C)[C@@]1(O)/C=C/C(C)=C/C(=O)O [(S)-ABA, (S)-abscisic acid, reference compound] | − |
| CC(=C/C(=O)O)/C=C/[C@@]1(O)C(/C=C/c2cc(C(F)(F)F)ccc2F)=CC(=O)CC1(C)C [Compound 27] | ++ (Seeds germinated 5 to 7 days earlier than those treated with 0.3 ppm of (S)-ABA alone.) |
| CC(=C/C(=O)O)/C=C/[C@@]1(O)C(/C=C/c2ccc(C#N)cc2)=CC(=O)CC1(C)C [Compound 3] | ++ (Seeds germinated 5 to 7 days earlier than those treated with 0.3 ppm of (S)-ABA alone.) |
| CC(=C/C(=O)O)/C=C/[C@@]1(O)C(/C=C/c2cncs2)=CC(=O)CC1(C)C [Compound 35] | − |
| CC(=C/C(=O)O)/C=C/[C@@]1(O)C(/C=C/c2cccc(C#N)c2)=CC(=O)CC1(C)C [Compound 32] | − |
| CC(=C/C(=O)O)/C=C/[C@@]1(O)C(/C=C/c2c(Cl)cccc2Cl)=CC(=O)CC1(C)C [Compound 5] | − |
| CC(=C/C(=O)O)/C=C/[C@@]1(O)C(/C=C/c2cccc(C(F)(F)F)c2F)=CC(=O)CC1(C)C [Compound 31] | +++ (Seeds germinated 8 to 10 days earlier than those treated with 0.3 ppm of (S)-ABA alone.) |
| COC(=O)/C=C(C)\C=C\[C@@]1(O)C(/C=C/c2cccc(C(F)(F)F)c2Cl)=CC(=O)CC1(C)C [Compound 13] | + (Seeds germinated 1 to 4 days earlier than those treated with 0.3 ppm of (S)-ABA alone.) |
| CC(=C/C(=O)O)/C=C/[C@@]1(O)C(/C=C/c2cccc(Cl)c2)=CC(=O)CC1(C)C [Compound 17] | − |
| CC(=C/C(=O)O)/C=C/[C@@]1(O)C(/C=C/c2cccc(C(F)(F)F)c2)=CC(=O)CC1(C)C [Compound 21] | + (Seeds germinated 1 to 4 days earlier than those treated with 0.3 ppm of (S)-ABA alone.) |
| CC(=C/C(=O)O)/C=C/[C@@]1(O)C(/C=C/c2ccc(C(F)(F)F)cc2)=CC(=O)CC1(C)C [Compound 26] | +++ (Seeds germinated 8 to 10 days earlier than those treated with 0.3 ppm of (S)-ABA alone.) |
| COC(=O)/C=C(C)\C=C\[C@@]1(O)C(/C=C/c2ccc(OC)c(C#N)c2)=CC(=O)CC1(C)C [Compound 11] | − |
| COC(=O)/C=C(C)\C=C\[C@@]1(O)C(/C=C/c2ccccc2F)=CC(=O)CC1(C)C [Compound 10] | − |
| CC(=C/C(=O)O)/C=C/[C@@]1(O)C(/C=C/c2ccc(F)cc2)=CC(=O)CC1(C)C [Compound 2] | + (Seeds germinated 1 to 4 days earlier than those treated with 0.3 ppm of (S)-ABA alone.) |

| Structure (SMILES) | Rating: Arabidopsis seed germination promotion activity |
| --- | --- |
| COC(=O)/C=C(C)\C=C\[C@@]1(O)C(/C=C/c2ccc(Cl)c(F)c2)CC(=O)CC1(C)C (some centres unmarked) [Compound 9] | ++ (Seeds germinated 5 to 7 days earlier than those treated with 0.3 ppm of (S)-ABA alone.) |
| COC(=O)/C=C(C)\C=C\[C@@]1(O)C(/C=C/c2ccc(Cl)cc2Cl)=CC(=O)CC1(C)C [Compound 15] | ++ (Seeds germinated 5 to 7 days earlier than those treated with 0.3 ppm of (S)-ABA alone.) |
| CC(=C/C(=O)O)/C=C/[C@@]1(O)C(/C=C/c2cccnc2)=CC(=O)CC1(C)C [Compound 37] | − |
| COC(=O)/C=C(C)\C=C\[C@@]1(O)C(/C=C/c2ccc(Cl)c(C(F)(F)F)c2)=CC(=O)CC1(C)C [Compound 14] | ++ (Seeds germinated 5 to 7 days earlier than those treated with 0.3 ppm of (S)-ABA alone.) |
| CC(=C/C(=O)O)/C=C/[C@@]1(O)C(/C=C/c2ccncc2)=CC(=O)CC1(C)C [Compound 38] | − |
| CC(=C/C(=O)O)/C=C/[C@@]1(O)C(/C=C/c2cccc(F)c2)=CC(=O)CC1(C)C [Compound 20] | ++ (Seeds germinated 5 to 7 days earlier than those treated with 0.3 ppm of (S)-ABA alone.) |
| CC(=C/C(=O)O)/C=C/[C@@]1(O)C(/C=C/c2ccco2)=CC(=O)CC1(C)C [Compound 33] | − |
| CC(=C/C(=O)O)/C=C/[C@@]1(O)C(/C=C/c2ccc(F)c(Cl)c2)=CC(=O)CC1(C)C [Compound 8] | +++ (Seeds germinated 8 to 10 days earlier than those treated with 0.3 ppm of (S)-ABA alone.) |
| CC(=C/C(=O)O)/C=C/[C@@]1(O)C(/C=C/c2cc(C(F)(F)F)ccc2Cl)=CC(=O)CC1(C)C [Compound 1] | ++ (Seeds germinated 5 to 7 days earlier than those treated with 0.3 ppm of (S)-ABA alone.) |
| CC(=C/C(=O)O)/C=C/[C@@]1(O)C(/C=C/c2ccc(C(F)(F)F)cc2F)=CC(=O)CC1(C)C [Compound 30] | ++ (Seeds germinated 5 to 7 days earlier than those treated with 0.3 ppm of (S)-ABA alone.) |
| CC(=C/C(=O)O)/C=C/[C@@]1(O)C(/C=C/c2ccc(F)cc2F)=CC(=O)CC1(C)C [Compound 22] | ++ (Seeds germinated 5 to 7 days earlier than those treated with 0.3 ppm of (S)-ABA alone.) |
| CC(=C/C(=O)O)/C=C/[C@@]1(O)C(/C=C/c2c(F)cccc2F)=CC(=O)CC1(C)C [Compound 6] | − |
| CC(=C/C(=O)O)/C=C/[C@@]1(O)C(/C=C/c2ccc(C)cc2)=CC(=O)CC1(C)C [Compound 4] | +++ (Seeds germinated 8 to 10 days earlier than those treated with 0.3 ppm of (S)-ABA alone.) |
| CC(=C/C(=O)O)/C=C/[C@@]1(O)C(/C=C/c2cc(Cl)cc(Cl)c2)=CC(=O)CC1(C)C [Compound 16] | ++ (Seeds germinated 5 to 7 days earlier than those treated with 0.3 ppm of (S)-ABA alone.) |
| CC(=C/C(=O)O)/C=C/[C@@]1(O)C(/C=C/c2cc(F)cc(C(F)(F)F)c2)=CC(=O)CC1(C)C [Compound 29] | ++ (Seeds germinated 5 to 7 days earlier than those treated with 0.3 ppm of (S)-ABA alone.) |
| CC(=C/C(=O)O)/C=C/[C@@]1(O)C(/C=C/c2ccc(Cl)cc2)=CC(=O)CC1(C)C [Compound 18] | +++ (Seeds germinated 8 to 10 days earlier than those treated with 0.3 ppm of (S)-ABA alone.) |
| CC(=C/C(=O)O)/C=C/[C@@]1(O)C(/C=C/c2ccc(Cl)c(Cl)c2)=CC(=O)CC1(C)C [Compound 19] | ++ (Seeds germinated 5 to 7 days earlier than those treated with 0.3 ppm of (S)-ABA alone.) |
| CC(=C/C(=O)O)/C=C/[C@@]1(O)C(/C=C/c2ccccc2C(F)(F)F)=CC(=O)CC1(C)C [Compound 25] | ++ (Seeds germinated 5 to 7 days earlier than those treated with 0.3 ppm of (S)-ABA alone.) |

Same assay, conditions: seed germination assay, 30 ppm with 0.3 ppm (S)-ABA

| Structure (SMILES) | antagonist nature compared to (S)-ABA |
| --- | --- |
| CC(=C/C(=O)O)/C=C/[C@@]1(O)C(/C=C/c2cccc(C(F)(F)F)c2F)=CC(=O)CC1(C)C [Compound 31] | antagonists of (S)-ABA |
| CC(=C/C(=O)O)/C=C/[C@@]1(O)C(/C=C/c2ccc(C(F)(F)F)cc2)=CC(=O)CC1(C)C [Compound 26] | antagonists of (S)-ABA |
| CC(=C/C(=O)O)/C=C/[C@@]1(O)C(/C=C/c2ccc(F)c(Cl)c2)=CC(=O)CC1(C)C [Compound 8] | antagonists of (S)-ABA |
| CC(=C/C(=O)O)/C=C/[C@@]1(O)C(/C=C/c2ccc(C)cc2)=CC(=O)CC1(C)C [Compound 4] | antagonists of (S)-ABA |
| CC(=C/C(=O)O)/C=C/[C@@]1(O)C(/C=C/c2ccc(Cl)cc2)=CC(=O)CC1(C)C [Compound 18] | antagonists of (S)-ABA |
